Source: article PMC6155021, “Ancient and modern anticonvulsants act synergistically in a KCNQ potassium channel binding pocket” (Nature Communications, 2018)

Experiments:
KCNQ2/3 channels = KCNQ2/3 channels (Homo sapiens, UniProt O43525+O43526); experiment: Two-electrode voltage-clamp of KCNQ2/3 channels expressed in Xenopus laevis oocytes; assay type: cell-based
Text: (§1) cRNA transcripts encoding human KCNA1, KCNQ1, KCNQ2, KCNQ3, KCNQ4, or KCNQ5 were generated by in vitro transcription using the T7 polymerase message machine kit (Thermo Fisher Scientific), after vector linearization, from cDNA sub-cloned into plasmids incorporating X. laevis β-globin 5′ and 3′ UTRs flanking the coding region to enhance translation and cRNA stability. cRNA was quantified by spectrophotometry. Mutant cDNAs were generated by site-directed mutagenesis using a QuikChange kit according to manufacturer’s protocol (Stratagene, San Diego, CA) and corresponding cRNAs prepared as above. Defolliculated stage V and VI X. laevis oocytes (Ecocyte Bioscience, Austin, TX) were injected with Kv channel α subunit cRNAs (10 ng total per oocyte). Oocytes were incubated at 16 °C in Barth’s saline solution (Ecocyte) containing penicillin and streptomycin, with daily washing, for 3–5 days prior to two-electrode voltage-clamp (TEVC) recording.
(§2) Oocytes were placed in a small-volume oocyte bath (Warner) and viewed with a dissection microscope. Chemicals were sourced from Sigma. Bath solution was (in mM): 96 NaCl, 4 KCl, 1 MgCl2, 1 CaCl2, 10 HEPES (pH 7.6). […] MTX (DMSO), sorbic acid (ethanol), and glutaconic acid (molecular grade H2O) were stored at −20 °C as 1 M stocks. Oleamide was stored as a 1 mM stock in ethanol at 4 °C. Palmitic acid was conjugated with bovine serum albumin as a 1 mM stock and stored at −20 °C. All compounds were diluted to working concentrations each experimental day. All compounds were introduced to the recording bath via gravity perfusion at a constant flow of 1 ml/min for 3 min prior to recording. Pipettes were of 1–2 MΩ resistance when filled with 3 M KCl. Currents were recorded in response to pulses between −80 and +40 mV at 20 mV intervals, or a single pulse to +40 mV, from a holding potential of −80 mV, to yield current–voltage relationships, current magnitude, and for quantifying activation rate. TEVC data analysis was performed with Clampfit10.2 (Molecular Devices) and Graphpad Prism software (GraphPad, San Diego, CA, USA); values are stated as mean ± SEM. Normalized tail currents were plotted versus prepulse voltage and fitted with a single Boltzmann function:1 g=A1-A2/1+expV12-Vy+A2, where g is the normalized tail conductance, A1 is the initial value at −∞, A2 is the final value at +∞, V1/2 is the half-maximal voltage of activation, and Vs the slope factor. Activation and deactivation kinetics were fitted with single-exponential functions.

KCNQ1 = KCNQ1 (Homo sapiens, UniProt P51787); set-up: method as in PMID 27997884; details: cited from earlier work
[1] = target: KCNQ2-W236L/KCNQ3-W265L channels (Homo sapiens, UniProt O43525+O43526, W236L/W265L); experiment: Two-electrode voltage-clamp of W236L-Q2/W265L-Q3 mutant channels in Xenopus oocytes; assay type: cell-based; details: for Non-normalized tail current V0.5 / Normalized tail current V0.5 / Slope: W236L-Q2/W265L-Q3
Text: as §1, §2

KCNQ2 = KCNQ2 (Homo sapiens, UniProt O43526); experiment: Two-electrode voltage-clamp of homomeric KCNQ2 in Xenopus oocytes; assay type: cell-based
Text: as §1, §2

[2] = KCNQ2/3, 30 µM, Supplementary Table 10
[3] = KCNQ2/3, 30 µM, Supplementary Table 11
[4] = KCNQ2/3, 30 µM, dose series (Supplementary Table 5)

KCNQ1, sequence (P51787 whole entry): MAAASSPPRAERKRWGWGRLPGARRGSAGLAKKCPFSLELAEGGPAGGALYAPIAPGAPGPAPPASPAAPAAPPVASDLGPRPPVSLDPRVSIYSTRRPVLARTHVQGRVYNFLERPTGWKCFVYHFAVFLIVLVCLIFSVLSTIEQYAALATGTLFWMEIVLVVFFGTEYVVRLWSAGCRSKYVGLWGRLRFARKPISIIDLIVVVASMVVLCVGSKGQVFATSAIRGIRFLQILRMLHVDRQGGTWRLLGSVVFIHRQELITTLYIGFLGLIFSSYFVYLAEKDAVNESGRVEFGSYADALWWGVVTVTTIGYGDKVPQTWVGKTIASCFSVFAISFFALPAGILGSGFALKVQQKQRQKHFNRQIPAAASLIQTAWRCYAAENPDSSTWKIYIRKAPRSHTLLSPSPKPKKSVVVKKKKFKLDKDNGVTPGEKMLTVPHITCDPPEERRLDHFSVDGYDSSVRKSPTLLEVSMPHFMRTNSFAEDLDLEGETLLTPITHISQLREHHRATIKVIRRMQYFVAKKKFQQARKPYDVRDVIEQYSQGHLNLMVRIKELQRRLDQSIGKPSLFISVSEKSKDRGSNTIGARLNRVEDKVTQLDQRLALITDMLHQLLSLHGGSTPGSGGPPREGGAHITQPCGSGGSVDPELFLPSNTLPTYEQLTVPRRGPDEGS

With `CC(=O)c1c(O)c(C)c(O)c(Cc2c(O)c3c(c(C(=O)/C=C/c4ccccc4)c2O)OC(C)(C)C=C3)c1O` [MTX, mallotoxin] the “resting membrane potential (EM) of unclamped oocytes expressing KCNQ2/3” value (KCNQ2/3 channels) was “dose-dependently hyperpolarizes”, the “effects on KCNQ2/3” value (KCNQ2/3 channels; 1 µM alone) was “negligible effects” and the “effect on voltage dependence of KCNQ2/3 activation (initial screen)” value (KCNQ2/3 channels; 30 µM, tail currents at −30 mV) was “negative-shifted”. For the same compound, the “KCNQ2/3 current increase at −60 mV” value (KCNQ2/3 channels; 100 µM) was “seven-fold”, the “effect on KCNQ2/3 at +40 mV” value (KCNQ2/3 channels; +40 mV) was “little effect” and the EC50 (KCNQ2/3 channels; EC50, KCNQ2/3, current at −60 mV, calculated from dose responses) was 11.5 ± 0.2 µM. For the same compound, the “Non-normalized tail current V0.5” value (KCNQ2/3 channels; KCNQ2/3, 0.1 µM) was -47.3 ± 2.4 mV, the “Normalized tail current V0.5” value (KCNQ2/3 channels; KCNQ2/3, 0.1 µM) was -47.8 ± 0.5 mV and the Slope (KCNQ2/3 channels; KCNQ2/3, 0.1 µM) was 7.5 ± 0.4 mV. The “τ act, -40 mV” value (KCNQ2/3 channels; KCNQ2/3, 0.1 µM) was 684 ± 55 ms, the “τ deact, -80 mV” value (KCNQ2/3 channels; KCNQ2/3, 0.1 µM) was 236 ± 12 ms and the “Non-normalized tail current V0.5” value (KCNQ2/3 channels; KCNQ2/3, 1 µM) was -44.4 ± 4.9 mV. For the same compound, the “Normalized tail current V0.5” value (KCNQ2/3 channels; KCNQ2/3, 1 µM) was -47.0 ± 0.9 mV, the Slope (KCNQ2/3 channels; KCNQ2/3, 1 µM) was 7.4 ± 0.6 mV and the “τ act, -40 mV” value (KCNQ2/3 channels; KCNQ2/3, 1 µM) was 611 ± 46 ms. The “τ deact, -80 mV” value (KCNQ2/3 channels; KCNQ2/3, 1 µM) was 227 ± 20 ms, the “Non-normalized tail current V0.5” value (KCNQ2/3 channels; KCNQ2/3, 3 µM) was -47.3 ± 5.0 mV and the “Normalized tail current V0.5” value (KCNQ2/3 channels; KCNQ2/3, 3 µM) was -50.7 ± 1.0 mV. For the same compound, the Slope (KCNQ2/3 channels; KCNQ2/3, 3 µM) was 7.9 ± 0.8 mV, the “τ act, -40 mV” value (KCNQ2/3 channels; KCNQ2/3, 3 µM) was 530 ± 37 ms and the “τ deact, -80 mV” value (KCNQ2/3 channels; KCNQ2/3, 3 µM) was 259 ± 12 ms. For the same compound, the “Non-normalized tail current V0.5” value (KCNQ2/3 channels; KCNQ2/3, 10 µM) was -51.9 ± 4.8 mV, the “Normalized tail current V0.5” value (KCNQ2/3 channels; KCNQ2/3, 10 µM) was -56.2 ± 1.3 mV and the Slope (KCNQ2/3 channels; KCNQ2/3, 10 µM) was 6.8 ± 1.3 mV. For the same compound, the “τ act, -40 mV” value (KCNQ2/3 channels; KCNQ2/3, 10 µM) was 462 ± 34 ms, the “τ deact, -80 mV” value (KCNQ2/3 channels; KCNQ2/3, 10 µM) was 261 ± 7 ms and the “Non-normalized tail current V0.5” value (KCNQ2/3 channels; KCNQ2/3, 30 µM) was -54.9 ± 4.9 mV. The “Normalized tail current V0.5” value (KCNQ2/3 channels; KCNQ2/3, 30 µM) was -60.0 ± 1.8 mV, the Slope (KCNQ2/3 channels; KCNQ2/3, 30 µM) was 8.0 ± 1.8 mV and the “τ act, -20 mV” value (KCNQ2/3 channels; [2]) was 205 ± 6 ms. The “τ act, -40 mV” value (KCNQ2/3 channels; [2]) was 397 ± 26 ms, the “τ act, -60 mV” value (KCNQ2/3 channels; [2]) was 835 ± 51 ms and the “τ deact, -80 mV” value (KCNQ2/3 channels; [3]) was 143 ± 39 ms. For the same compound, the “τ deact, -90 mV” value (KCNQ2/3 channels; [3]) was 105 ± 4.2 ms, the “τ deact, -100 mV” value (KCNQ2/3 channels; [3]) was 77 ± 6.2 ms and the “τ deact, -110 mV” value (KCNQ2/3 channels; [3]) was 53 ± 3.5 ms. The “τ deact, -120 mV” value (KCNQ2/3 channels; [3]) was 36 ± 1.2 ms, the “τ act, -40 mV” value (KCNQ2/3 channels; [4]) was 403 ± 33 ms and the “τ deact, -80 mV” value (KCNQ2/3 channels; [4]) was 259 ± 18 ms. The “Non-normalized tail current V0.5” value (KCNQ2/3 channels; KCNQ2/3, 100 µM) was -56.6 ± 3.8 mV, the “Normalized tail current V0.5” value (KCNQ2/3 channels; KCNQ2/3, 100 µM) was -57.1 ± 0.6 mV and the Slope (KCNQ2/3 channels; KCNQ2/3, 100 µM) was 7.2 ± 0.5 mV. The “τ act, -40 mV” value (KCNQ2/3 channels; KCNQ2/3, 100 µM) was 403 ± 34 ms, the “τ deact, -80 mV” value (KCNQ2/3 channels; KCNQ2/3, 100 µM) was 415 ± 87 ms and the “shift in midpoint voltage dependence (V0.5) of activation” value (KCNQ2/3 channels; KCNQ2/3, MTX 30 µM) was −17 mV. The EC50 (KCNQ2/3 channels; V0.5 EC50, KCNQ2/3, calculated from shift in V0.5) was 4 ± 0.2 µM, the “KCNQ2/3 current increase at −60 mV” value (KCNQ2/3 channels; either component alone (MTX 30 µM; IVA 500 µM)) was “~ fivefold” and the “time to plateau of KCNQ2/3 activation after wash-in” value (KCNQ2/3 channels; −60 mV current) was 5 min. The “effect on KCNQ1” value (KCNQ1) was “activated”, the EC50 [1] was 14.9 ± 0.1 µM and the “Non-normalized tail current V0.5” value ([1]; 1 µM) was -62.5 ± 3.4 mV. For the same compound, the “Normalized tail current V0.5” value ([1]; 1 µM) was -62.8 ± 0.4 mV, the Slope ([1]; 1 µM) was 5.9 ± 0.5 mV and the “Non-normalized tail current V0.5” value ([1]; 3 µM) was -63.6 ± 3.7 mV. The “Normalized tail current V0.5” value ([1]; 3 µM) was -64.1 ± 0.9 mV, the Slope ([1]; 3 µM) was 6.3 ± 0.9 mV and the “Non-normalized tail current V0.5” value ([1]; 10 µM) was -66.3 ± 3.9 mV. The “Normalized tail current V0.5” value ([1]; 10 µM) was -67.3 ± 0.9 mV, the Slope ([1]; 10 µM) was 6.4 ± 0.6 mV and the “Non-normalized tail current V0.5” value ([1]; 30 µM) was -70.6 ± 3.7 mV. For the same compound, the “Normalized tail current V0.5” value ([1]; 30 µM) was -71.9 ± 0.9 mV, the Slope ([1]; 30 µM) was 6.3 ± 0.5 mV and the “Non-normalized tail current V0.5” value ([1]; 100 µM) was -74.4 ± 3.9 mV. The “Normalized tail current V0.5” value ([1]; 100 µM) was -77.3 ± 1.4 mV, the Slope ([1]; 100 µM) was 5.9 ± 1.8 mV and the EC50 (KCNQ2) was 6.4 µM. For the same compound, the “Non-normalized tail current V0.5” value (KCNQ2; KCNQ2, 0.1 µM) was -50.0 ± 0.4 mV, the “Normalized tail current V0.5” value (KCNQ2; KCNQ2, 0.1 µM) was -50.0 ± 0.35 mV and the Slope (KCNQ2; KCNQ2, 0.1 µM) was 7.4 ± 0.23 mV. For the same compound, the “τ act, -40 mV” value (KCNQ2; KCNQ2, 0.1 µM) was 538 ± 20 ms, the “τ deact, -80 mV” value (KCNQ2; KCNQ2, 0.1 µM) was 294 ± 10 ms and the “Non-normalized tail current V0.5” value (KCNQ2; KCNQ2, 1 µM) was -51.7 ± 2.0 mV. The “Normalized tail current V0.5” value (KCNQ2; KCNQ2, 1 µM) was -51.4 ± 0.46 mV, the Slope (KCNQ2; KCNQ2, 1 µM) was 7.4 ± 0.31 mV and the “τ act, -40 mV” value (KCNQ2; KCNQ2, 1 µM) was 490 ± 23 ms. The “τ deact, -80 mV” value (KCNQ2; KCNQ2, 1 µM) was 271 ± 11 ms, the “Non-normalized tail current V0.5” value (KCNQ2; KCNQ2, 3 µM) was -52.1 ± 2.5 mV and the “Normalized tail current V0.5” value (KCNQ2; KCNQ2, 3 µM) was -54.9 ± 0.41 mV. For the same compound, the Slope (KCNQ2; KCNQ2, 3 µM) was 7.3 ± 0.33 mV, the “τ act, -40 mV” value (KCNQ2; KCNQ2, 3 µM) was 417 ± 25 ms and the “τ deact, -80 mV” value (KCNQ2; KCNQ2, 3 µM) was 237 ± 12 ms. The “Non-normalized tail current V0.5” value (KCNQ2; KCNQ2, 10 µM) was -61.7 ± 2.7 mV, the “Normalized tail current V0.5” value (KCNQ2; KCNQ2, 10 µM) was -61.2 ± 0.87 mV and the Slope (KCNQ2; KCNQ2, 10 µM) was 7.0 ± 1.0 mV. For the same compound, the “τ act, -40 mV” value (KCNQ2; KCNQ2, 10 µM) was 341 ± 22 ms, the “τ deact, -80 mV” value (KCNQ2; KCNQ2, 10 µM) was 199 ± 11 ms and the “Non-normalized tail current V0.5” value (KCNQ2; KCNQ2, 30 µM) was -68.7 ± 2.7 mV. For the same compound, the “Normalized tail current V0.5” value (KCNQ2; KCNQ2, 30 µM) was -68.5 ± 1.5 mV, the Slope (KCNQ2; KCNQ2, 30 µM) was 7.4 ± 0.6 mV and the “shift in midpoint voltage of activation” value (KCNQ2; KCNQ2, 30 µM) was −24 mV. For the same compound, the “τ act, -40 mV” value (KCNQ2; KCNQ2, 30 µM) was 301 ± 19 ms, the “τ deact, -80 mV” value (KCNQ2; KCNQ2, 30 µM) was 173 ± 10 ms and the “Non-normalized tail current V0.5” value (KCNQ2; KCNQ2, 100 µM) was -66.2 ± 2.7 mV. For the same compound, the “Normalized tail current V0.5” value (KCNQ2; KCNQ2, 100 µM) was -66.0 ± 2.7 mV, the Slope (KCNQ2; KCNQ2, 100 µM) was 8.1 ± 1.2 mV and the “τ act, -40 mV” value (KCNQ2; KCNQ2, 100 µM) was 353 ± 22 ms. For the same compound, the “τ deact, -80 mV” value (KCNQ2; KCNQ2, 100 µM) was 190 ± 8 ms.
